# Measured values as given in patent publication US20250325676A1, “CAMPTOTHECIN PRODRUG AND PHARMACEUTICAL COMPOSITION THEREOF” (TIANJIN HEMAY ONCOLOGY PHARMACEUTICAL CO., LTD, priority 2022, published 2025).
# pIC50: −log10 of the molar value. Where two headings read alike, the source gives them in different places.
# Assays:
# [1] = tested on: human pancreatic cancer BxPC-3; assay: Growth of human pancreatic cancer BxPC-3 in allogeneic transplantation model; assay type: in vivo, nude mice; details: BxPC-3 model
# [2] = tested on: human colon cancer HCT116; assay: Growth of human colon cancer HCT116 in allogeneic transplantation model; assay type: in vivo, nude mice
# BxPC-3 = assay: In vitro inhibition of human tumor cells, BxPC-3, MTT method; assay type: cell-based
# Protocol: (§1) The cells were allowed to adhere overnight.
# (§2) Adherent cells: Culture medium was aspirated and 100 μl/wells of basal culture (generally refers to medium without fetal bovine serum (FBS) and other additives) containing 0.5 mg/ml MTT were added. The cells were cultured for 3 hours. MTT-containing basal medium was aspirated and 100 μl/wells of DMSO were added to dissolve formazan.
# (§3) Unstably adherent cells: Unstably adherent cells were directly added to the MTT solution to achieve the concentration of 0.5 mg/ml and cultured for 3 hours. The ternary solution in an equal volume to the system was added to the system to dissolve the formazan.
# (§4) The DMSO concentration was 0.1%.
# [3] = tested on: human small cell lung cancer NCI-H446; details: 20 mg/kg i.v. qw × 2; NCI-H446 model
# SW620 = assay: In vitro inhibition of human tumor cells, SW620, SRB method; assay type: cell-based
# Text: as §1
# (§5) Trichloroacetic acid was removed. […] Excess SRB was removed.
# as §4
# HCT116 = assay: In vitro inhibition of human tumor cells, HCT116, MTT method; assay type: cell-based
# Protocol: as §1, §2, §3, §4
# MDA-MB-468 = assay: In vitro inhibition of human tumor cells, MDA-MB-468, SRB method
# LoVo = assay: In vitro inhibition of human tumor cells, LoVo, SRB method; assay type: cell-based
# Text: as §1, §5, §4
# NCI-N87 = assay: In vitro inhibition of human tumor cells, NCI-N87, MTT method; assay type: cell-based
# NCI-H460 = assay: In vitro inhibition of human tumor cells, NCI-H460, MTT method; assay type: cell-based
# Protocol: as §1, §2, §3, §4
# [4] = tested on: human gastric cancer NCI-N87; assay: Growth of human gastric cancer NCI-N87 in allogeneic transplantation model; assay type: in vivo, nude mice; details: for Relative volume RTV (X ± S.D.) / T/C (%) / Tumor inhibition rate (%) / Tumor weight (g, X ± S.D.): 20 mg/kg i.v. qw × 2
# Protocol: The tumor volume was measured 2 to 3 times per week. […] The subcutaneous tumors were peeled and weighed.
# The calculation formula of the tumor volume: Volume=0.5×long diameter×short diameter×short diameter.
# [5] = tested on: human colon cancer HCT116; details: 30 mg/kg i.v. qw × 2; HCT116 large tumor after irinotecan
# Text: When the tumor volume was more than 600 mm^3 and stable growth was maintained, the experimental animals were randomly divided by the remainder method and administered according to the size of the tumor volume. […] The subcutaneous tumors were stripped and weighed.
# T was the subject and C is the model control.
# Tumor volume growth was observed on a regular basis after completion of dosing.
# A375 = assay: In vitro inhibition of human tumor cells, A375, SRB method
# Fadu = assay: In vitro inhibition of human tumor cells, Fadu, MTT method; assay type: cell-based
# BEL-7404 = assay: In vitro inhibition of human tumor cells, BEL-7404, SRB method
# 22RV1 = assay: In vitro inhibition of human tumor cells, 22RV1, SRB method
# [6] = tested on: human pancreatic cancer BxPC-3; details: 30 mg/kg i.v. qw × 2
# human colon cancer SW620 = details: 30 mg/kg i.v. qw × 2; SW620 model
# [7] = No βGU (direct effects of compound on cells)
# [8] = BxPC-3 large tumors after irinotecan
molecule,measurement,setting,value
"CCc1c2c(nc3ccc(OC(=O)N4CCC(N5CCCCC5)CC4)cc13)-c1cc3c(c(=O)n1C2)COC(=O)[C@]3(O)CC [irinotecan, reference compound]",Final body weight change (%),"[1]; 100 mg/kg i.p. qw × 2, d 17 data",6.4%
same,Tumor inhibition rate (%),[2]; 100 mg/kg i.p. qw × 2,71.6%
same,Final body weight change (%),"[2]; 100 mg/kg i.p. qw × 2, nude mouse",−10.5%
"(2S,3S,4S,5R,6S)-6-(3-((1-(2-(2-(2-((4′-((E)-(8-amino-1-hydroxy-5,7-disulfonicnaphthalen-2-yl)diazenyl)-3,3′-dimethyl-[1,1′-biphenyl]-4-yl)amino)-2-oxoethoxy)ethoxy)ethyl)-1H-1,2,3-triazol-4-yl)methoxy)-4-(((S)-4,11-diethyl-4-hydroxy-3,14-dioxo-3,4,12,14-tetrahydro-1H-pyrano[3′,4′:6,7]indolazino[1,2-b]quinolin-9-yl)oxy)methyl)phe noxy)-3,4,5-trihydroxytetrahydro-2H-pyran-2-carboxylate trisodium [Example 54]",pIC50,BxPC-3; Adding βGU,8.06
same,pIC50,BxPC-3; No βGU,6.20
same,Relative volume RTV (X ± S.D.),[3],0.61 ± 0.48
same,T/C (%),[3],8.9%
same,Tumor inhibition rate (%),[3],90.5%
same,"Tumor weight (g, X ± S.D.)",[3],0.093 ± 0.080 g
same,pIC50,SW620; Adding βGU,7.82
same,pIC50,SW620; No βGU,6.26
same,pIC50,HCT116; Adding βGU (β-glucuronidase),7.89
same,pIC50,HCT116; [7],6.59
same,pIC50,MDA-MB-468; Adding βGU,8.17
same,pIC50,MDA-MB-468; No βGU,6.66
same,pIC50,LoVo; Adding βGU,8.03
same,pIC50,LoVo; No βGU,6.56
same,pIC50,NCI-N87; Adding βGU,7.42
same,inhibition rate at 2 μM,"NCI-N87; No βGU, 2 μM",2 μM about 46.1%
same,T/C (%),[2]; 10 mg/kg i.v. qw × 2,27.0%
same,Tumor inhibition rate (%),[2]; 10 mg/kg i.v. qw × 2,74.4%
same,pIC50,NCI-H460; Adding βGU,7.96
same,pIC50,NCI-H460; No βGU,6.44
"(2S,3S,4S,5R,6S)-6-(3-((1-(2-((4′-((E)-(8-amino-1-hydroxy-5,7-disulfonicnaphthalen-2-yl)diazenyl)-3,3′-dimethyl-[1,1′-biphenyl]-4-yl)amino)-2-oxoethyl)-1H-1,2,3-triazol-4-yl)methoxy)-4-((((S)-4,11-diethyl-4-hydroxy-3,14-dioxy-3,4,12,14-tetrahydro-1H-pyrano[3′,4′:6,7]indolazino[1,2-b]quinolin-9-yl)oxy)methyl)phenoxy)-3,4,5-trihydroxytetrahydro-2H-pyran-2-carboxylate trisodium [Example 90]",Relative volume RTV (X ± S.D.),[4],1.30 ± 0.36
same,T/C (%),[4],25.3%
same,Tumor inhibition rate (%),[4],83.5%
same,"Tumor weight (g, X ± S.D.)",[4],0.197 ± 0.085 g
same,pIC50,MDA-MB-468; Adding βGU,8.37
same,pIC50,MDA-MB-468; No βGU,7.10
same,pIC50,NCI-N87; Adding βGU,7.64
same,pIC50,NCI-N87; No βGU,6.08
same,Relative volume RTV (X ± S.D.),[5],0.89 ± 0.10
same,T/C (%),[5],23.9%
same,Tumor inhibition rate (%),[5],77.0%
same,"Tumor weight (g, X ± S.D.)",[5],0.627 ± 0.408 g
same,T/C (%),[2]; 10 mg/kg i.v. qw × 2,23.7%
same,Tumor inhibition rate (%),[2]; 10 mg/kg i.v. qw × 2,81.7%
"(2S,3S,4S,5R,6S)-6-(3-((1-(5-((4′-((E)-(8-amino-1-hydroxy-5,7-disulfonicnaphthalen-2-yl)diazenyl)-3,3′-dimethyl-[1,1′-biphenyl]-4-yl)amino)-5-oxopentyl)-1H-1,2,3-triazol-4-yl)methoxy)-4-((((S)-4,11-diethyl-4-hydroxy-3,14-dioxy-3,4,12,14-tetrahydro-1H-pyrano[3′,4′:6,7]indolazino[1,2-b]quinolin-9-yl)oxy)methyl)phenoxy)-3,4,5-trihydroxytetrahydro-2H-pyran-2-carboxylate trisodium [Example 85]",Relative volume RTV (X ± S.D.),[4],0.67 ± 0.24
same,T/C (%),[4],13.0%
same,Tumor inhibition rate (%),[4],93.6%
same,"Tumor weight (g, X ± S.D.)",[4],0.076 ± 0.014 g
same,Final body weight change (%),"[4]; 20 mg/kg i.v. qw × 2, nude mouse",10.0%
same,Relative volume RTV (X ± S.D.),[1]; 25 mg/kg i.v. qw × 2,0.23 ± 0.05
same,T/C (%),[1]; 25 mg/kg i.v. qw × 2,4.8%
same,Tumor inhibition rate (%),[1]; 25 mg/kg i.v. qw × 2,97.2%
same,"Tumor weight (g, X ± S.D.)",[1]; 25 mg/kg i.v. qw × 2,0.047 ± 0.027 g
same,Final body weight change (%),"[1]; 25 mg/kg i.v. qw × 2, nude mouse",4.0%
same,pIC50,A375; Adding βGU,7.72
same,pIC50,A375; No βGU,6.06
same,pIC50,Fadu; Adding βGU,7.82
same,pIC50,Fadu; No βGU,6.15
same,pIC50,BEL-7404; Adding βGU,7.30
same,pIC50,BEL-7404; No βGU,6.14
same,pIC50,22RV1; Adding βGU,8.05
same,pIC50,22RV1; No βGU,6.61
same,Relative volume RTV (X ± S.D.),[6]; [8],0.48 ± 0.11
same,T/C (%),[6]; [8],13.7%
same,Tumor inhibition rate (%),[6]; [8],90.0%
same,"Tumor weight (g, X ± S.D.)",[6]; [8],0.301 ± 0.051 g
same,Final body weight change (%),[6]; BxPC-3 tumors more than 600 mm^3 after irinotecan 100 mg/kg i.p. qw × 2,0.4%
same,pIC50,MDA-MB-468; Adding βGU,8.01
same,pIC50,MDA-MB-468; No βGU,7.15
same,pIC50,NCI-N87; Adding βGU,7.51
same,pIC50,NCI-N87; No βGU,6.75
"(2S,3S,4S,5R,6S)-6-(3-((1-(6-((4′-((E)-(8-amino-1-hydroxy-5,7-disulfonicnaphthalen-2-yl)diazenyl)-3,3′-dimethoxy-[1,1′-biphenyl]-4-yl)amino)-6-oxohexyl)-1H-1,2,3-triazol-4-yl)methoxy)-4-(((S)-4,11-diethyl-4-hydroxy-3,14-dioxy-3,4,12,14-tetrahydro-1H-pyrano[3′,4′:6,7]indolizino[1,7]quinolin-9-yl)oxy)methyl)phenoxy)-3,4,5-trihydroxytetrahydro-2H-pyran-2-carboxylate trisodium [Example 69]",T/C (%),human colon cancer SW620,1.1%
same,Tumor inhibition rate (%),human colon cancer SW620,99.1%
same,pIC50,BxPC-3; Adding βGU,7.80
same,pIC50,BxPC-3; No βGU,6.14
same,pIC50,SW620; Adding βGU,8.11
same,pIC50,SW620; No βGU,6.44
same,pIC50,HCT116; Adding βGU (β-glucuronidase),8.09
same,pIC50,HCT116; [7],6.74
same,pIC50,MDA-MB-468; Adding βGU,8.00
same,pIC50,MDA-MB-468; No βGU,7.06
same,pIC50,LoVo; Adding βGU,7.96
same,pIC50,LoVo; No βGU,6.23
same,pIC50,NCI-N87; Adding βGU,7.49
same,pIC50,NCI-N87; No βGU,6.46
same,pIC50,NCI-H460; Adding βGU,7.89
same,pIC50,NCI-H460; No βGU,6.25
"(2S,3S,4S,5R,6S)-6-(3-((1-(8-((4′-((E)-(8-amino-1-hydroxy-5,7-disulfonicnaphthalen-2-yl)diazenyl)-3,3′-dimethyl-[1,1′-biphenyl]-4-yl)amino)-8-oxooctyl)-1H-1,2,3-triazol-4-yl)methoxy)-4-((((S)-4,11-diethyl-4-hydroxy-3,14-dioxy-3,4,12,14-tetrahydro-1H-pyrano[3′,4′:6,7]indolizino[1,2-b]quinolin-9-yl)oxy)methyl)phenoxy)-3,4,5-trihydroxytetrahydro-2H-pyran-2-carboxylate trisodium [Example 40]",T/C (%),human colon cancer SW620,2.9%
same,Tumor inhibition rate (%),human colon cancer SW620,97.2%
same,pIC50,BxPC-3; Adding βGU,7.39
same,pIC50,BxPC-3; No βGU,6.18
same,pIC50,SW620; Adding βGU,8.16
same,pIC50,SW620; No βGU,6.61
same,pIC50,HCT116; Adding βGU (β-glucuronidase),8.21
same,pIC50,HCT116; [7],6.66
same,pIC50,MDA-MB-468; Adding βGU,8.16
same,pIC50,MDA-MB-468; No βGU,6.66
same,pIC50,LoVo; Adding βGU,7.64
same,pIC50,LoVo; No βGU,6.52
same,pIC50,NCI-N87; Adding βGU,7.52
same,pIC50,NCI-N87; No βGU,5.80
same,pIC50,NCI-H460; Adding βGU,7.82
same,pIC50,NCI-H460; No βGU,6.03
"(2S,3S,4S,5R,6S)-6-(3-((1-(8-((4′-((E)-(8-amino-1-hydroxy-5,7-disulfonicnaphthalen-2-yl)diazenyl)-[1,1′-biphenyl]-4-yl)amino)-8-oxooctyl)-1H-1,2,3-triazol-4-yl)methoxy)-4-((((S)-4,11-diethyl-4-hydroxy-3,14-dioxo-3,4,12,14-tetrahydro-1H-pyrano[3′,4′: 6,7]indolazino[1,2-b]quinolin-9-yl)oxy)methyl)phenoxy)-3,4,5-trihydroxytetrahydro-2H-pyran-2-carboxylate trisodium [Example 47]",T/C (%),human colon cancer SW620,3.5%
same,Tumor inhibition rate (%),human colon cancer SW620,96.2%
same,pIC50,BxPC-3; Adding βGU,7.57
same,pIC50,BxPC-3; No βGU,6.16
same,pIC50,SW620; Adding βGU,8.17
same,pIC50,SW620; No βGU,6.48
same,pIC50,HCT116; Adding βGU (β-glucuronidase),7.92
same,pIC50,HCT116; [7],6.74
same,pIC50,MDA-MB-468; Adding βGU,7.85
same,pIC50,MDA-MB-468; No βGU,6.76
same,pIC50,LoVo; Adding βGU,7.66
same,pIC50,LoVo; No βGU,6.51
same,pIC50,NCI-N87; Adding βGU,7.21
same,pIC50,NCI-N87; No βGU,5.83
same,pIC50,NCI-H460; Adding βGU,7.77
same,pIC50,NCI-H460; No βGU,6.46
